Reference: ChEMBL document CHEMBL3217600, “The discovery and profile of PF-0868087, a CNS-sparing histamine H3 receptor antagonist for the treatment of allergic rhinitis” (Medchemcomm, 2012)

Experiments:
[1] = biological target: Voltage-gated inwardly rectifying potassium channel KCNH2 (Homo sapiens, UniProt Q12809); assay: Binding affinity to human ERG
[2] = Total Cmax in rat at 1 mg/kg, iv administered as bolus dose; type: ADME, organism-based; set-up: dose 1 mg/kg, route intravenous; settings: in vivo
[3] = Total Cmax in rat at 2 mg/kg, po; type: ADME, organism-based; set-up: dose 2 mg/kg, route oral; settings: in vivo
[4] = Total Cmax in dog at 0.2 mg/kg, iv infusion; type: ADME, organism-based, Canis lupus familiaris; set-up: dose 0.2 mg/kg, route intravenous; settings: in vivo
[5] = Total Cmax in dog at 0.2 mg/kg, po; type: ADME, organism-based, Canis lupus familiaris; set-up: dose 0.2 mg/kg, route oral; settings: in vivo
Rattus norvegicus [6] = assay: Free Cmax in rat at 1 mg/kg, iv administered as bolus dose; type: ADME, organism-based; set-up: dose 1 mg/kg, route intravenous; settings: in vivo
Rattus norvegicus [7] = assay: Free Cmax in rat at 2 mg/kg, po; type: ADME, organism-based; set-up: dose 2 mg/kg, route oral; settings: in vivo
Canis familiaris [8] = assay: Free Cmax in dog at 0.2 mg/kg, iv infusion; type: ADME, organism-based, Canis lupus familiaris; set-up: dose 0.2 mg/kg, route intravenous; settings: in vivo
Canis familiaris [9] = assay: Free Cmax in dog at 0.2 mg/kg, po; type: ADME, organism-based, Canis lupus familiaris; set-up: dose 0.2 mg/kg, route oral; settings: in vivo
[10] = Tmax in rat at 2 mg/kg, po; type: ADME, organism-based; set-up: dose 2 mg/kg, route oral; settings: in vivo
[11] = Tmax in dog at 0.2 mg/kg, po; type: ADME, organism-based, Canis lupus familiaris; set-up: dose 0.2 mg/kg, route oral; settings: in vivo
[12] = AUC in rat at 1 mg/kg, iv administered as bolus dose; type: ADME, organism-based; set-up: dose 1 mg/kg, route intravenous; settings: plasma
[13] = AUC in rat at 2 mg/kg, po; type: ADME, organism-based; set-up: dose 2 mg/kg, route oral; settings: plasma
[14] = AUC in dog at 0.2 mg/kg, iv infusion; type: ADME, organism-based, Canis lupus familiaris; set-up: dose 0.2 mg/kg, route intravenous; settings: plasma
[15] = AUC in dog at 0.2 mg/kg, po; type: ADME, organism-based, Canis lupus familiaris; set-up: dose 0.2 mg/kg, route oral; settings: plasma
[16] = Clearance in rat at 1 mg/kg, iv administered as bolus dose; type: ADME, organism-based; set-up: dose 1 mg/kg, route intravenous; settings: in vivo
[17] = Clearance in dog at 0.2 mg/kg, iv infusion; type: ADME, organism-based, Canis lupus familiaris; set-up: dose 0.2 mg/kg, route intravenous; settings: in vivo
[18] = Volume of distribution at steady state in rat at 1 mg/kg, iv administered as bolus dose; type: ADME, organism-based; set-up: dose 1 mg/kg, route intravenous; settings: in vivo, read-out: Vdss
[19] = Volume of distribution at steady state in dog at 0.2 mg/kg, iv infusion; type: ADME, organism-based, Canis lupus familiaris; set-up: dose 0.2 mg/kg, route intravenous; settings: in vivo, read-out: Vdss
[20] = Effective half life in rat at 1 mg/kg, iv administered as bolus dose; type: ADME, organism-based; set-up: dose 1 mg/kg, route intravenous; settings: in vivo, read-out: t1/2eff (converted)
[21] = Effective half life in dog at 0.2 mg/kg, iv infusion; type: ADME, organism-based, Canis lupus familiaris; set-up: dose 0.2 mg/kg, route intravenous; settings: in vivo, read-out: t1/2eff (converted)
[22] = Drug absorption in rat at 2 mg/kg, po; type: ADME, organism-based; set-up: dose 2 mg/kg, route oral; settings: in vivo, read-out: Drug absorption
[23] = Oral bioavailability in rat at 2 mg/kg; type: ADME, organism-based; settings: in vivo
[24] = Oral bioavailability in dog at 0.2 mg/kg; type: ADME, organism-based, Canis lupus familiaris; settings: in vivo
Salmonella typhimurium [25] = assay: Genotoxicity in Salmonella typhimurium TA98 expressing lux gene assessed as mutagenicity by BioLum Ames test; type: toxicity, organism-based; settings: salmonella enterica subsp. enterica serovar typhimurium
Salmonella typhimurium [26] = assay: Genotoxicity in Salmonella typhimurium TA100 expressing lux gene assessed as mutagenicity by BioLum Ames test; type: toxicity, organism-based; settings: salmonella enterica subsp. enterica serovar typhimurium
CHO [27] = assay: Genotoxicity in CHO cells by micronucleus test in presence of metabolic activation; type: toxicity, cell-based, Cricetulus griseus; settings: chinese hamster
CHO [28] = assay: Genotoxicity in CHO cells by micronucleus test in absence of metabolic activation; type: toxicity, cell-based, Cricetulus griseus; settings: chinese hamster
[29] = Induction of phospholipidosis in transformed human liver epithelial cells; type: cell-based; settings: epithelial cell
[30] = Toxicity in non-regulatory rat assessed as tolerability administered for 7 days; type: organism-based; settings: in vivo
Rattus norvegicus [31] = assay: Free drug level in non-regulatory rat administered for 7 days; type: ADME, organism-based; settings: in vivo, 168 h
[32] = Dissociation constant, pKa of the compound; type: physicochemical
[33] = Distribution coefficient, log D of the compound at pH 7.4; type: physicochemical; settings: octanol/water
[34] = Solubility of the compound; type: physicochemical
[35] = Apparent permeability from apical to basolateral side in dog RRCK cells; type: ADME, cell-based, Canis lupus familiaris, MDCKII-LE; settings: MDCK
MDR1 (P-gp) = assay: Efflux ratio of permeability from basolateral to apical side over apical to basolateral side of MDR1 transfected dog MDCK cells; type: ADME, cell-based, Canis lupus familiaris
BCRP = assay: Efflux ratio of permeability from basolateral to apical side over apical to basolateral side of BCRP transfected dog RRCK cells; type: ADME, cell-based, Canis lupus familiaris, MDCKII-LE
Nucleic Acid = assay: Ratio of drug level in CSF to free drug level in plasma in iv dosed rat administered at high multiple of H3R Ki measured after 4 hrs infusion; type: ADME, organism-based; settings: in vivo
[36] = Ratio of free drug level in brain to plasma in iv dosed rat measured after 6 hrs infusion; type: ADME, organism-based; settings: read-out: K(p,uu,brain)
[37] = Ratio of free drug level in brain to plasma in rat at 8 mg/kg/day, po for 8 days; type: ADME, organism-based; set-up: route oral; settings: read-out: K(p,uu,brain)
[38] = Ratio of free drug level in brain to plasma in dog at 1.5 mg/kg/day, po for 8 days; type: ADME, organism-based, Canis lupus familiaris; set-up: route oral; settings: read-out: K(p,uu,brain)
[39] = Therapeutic index in EEG PKPD rat relative to CNS penetrant compound Z; type: organism-based; settings: in vivo, read-out: TI
[40] = Oral bioavailability in rat; type: ADME, organism-based; settings: in vivo
Histamine H3 receptor [41] = biological target: T1, Histamine H3 receptor (Homo sapiens, UniProt Q9Y5N1); assay: Displacement of [3H]-N-alpha-methylhistamine from human recombinant histamine H3 receptor expressed in HEK293 cell membrane; type: cell membranes
T1 sequence (Q9Y5N1 whole entry): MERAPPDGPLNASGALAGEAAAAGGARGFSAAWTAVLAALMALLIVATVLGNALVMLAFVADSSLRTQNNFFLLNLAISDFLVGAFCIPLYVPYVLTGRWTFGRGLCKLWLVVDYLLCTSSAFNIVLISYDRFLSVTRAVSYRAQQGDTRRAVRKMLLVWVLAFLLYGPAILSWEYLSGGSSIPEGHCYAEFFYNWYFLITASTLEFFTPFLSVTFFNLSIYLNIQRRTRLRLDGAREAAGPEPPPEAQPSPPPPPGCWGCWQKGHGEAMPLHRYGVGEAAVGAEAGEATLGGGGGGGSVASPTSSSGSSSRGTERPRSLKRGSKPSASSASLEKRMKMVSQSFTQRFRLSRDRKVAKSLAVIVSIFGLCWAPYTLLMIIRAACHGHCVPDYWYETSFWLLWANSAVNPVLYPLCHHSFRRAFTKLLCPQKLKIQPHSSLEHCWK

Histamine H3 receptor [42] = biological target: T1, Histamine H3 receptor; assay: Displacement of [3H]-PF-05255650 from human recombinant histamine H3 receptor expressed in HEK293 cell membrane; type: cell membranes
Histamine H3 receptor [43] = biological target: T2, Histamine H3 receptor (Rattus norvegicus, UniProt Q9QYN8); assay: Displacement of [3H]-N-alpha-methylhistamine from rat recombinant histamine H3 receptor expressed in HEK293 cell membrane; type: cell membranes
T2 sequence (Q9QYN8 whole entry): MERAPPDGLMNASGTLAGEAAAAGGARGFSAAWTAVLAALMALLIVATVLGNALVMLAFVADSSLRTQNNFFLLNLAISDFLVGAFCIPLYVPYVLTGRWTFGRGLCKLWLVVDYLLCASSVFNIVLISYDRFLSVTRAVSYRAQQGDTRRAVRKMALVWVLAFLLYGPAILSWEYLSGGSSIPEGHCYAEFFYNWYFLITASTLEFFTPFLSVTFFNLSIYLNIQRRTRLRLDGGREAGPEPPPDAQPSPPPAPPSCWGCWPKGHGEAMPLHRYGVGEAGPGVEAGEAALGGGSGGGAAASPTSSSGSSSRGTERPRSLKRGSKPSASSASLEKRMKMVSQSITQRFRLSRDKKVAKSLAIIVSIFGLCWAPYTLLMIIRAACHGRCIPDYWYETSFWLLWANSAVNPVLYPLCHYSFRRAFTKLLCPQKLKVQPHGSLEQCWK

Histamine H3 receptor [44] = biological target: T2, Histamine H3 receptor; assay: Displacement of [3H]-N-alpha-methylhistamine from histamine H3 receptor in rat brain; type: tissue-based
Histamine H3 receptor [45] = biological target: T1, Histamine H3 receptor; assay: Inhibition of human recombinant histamine H3 receptor expressed in HEK293 cells assessed as inhibition of imetit-induced reduction in NKH477-stimulated cAMP accumulation by DiscoveRxTM assay; type: functional, cell-based
Histamine H3 receptor [46] = biological target: T1, Histamine H3 receptor; assay: Inhibition of human recombinant histamine H3 receptor expressed in HEK293 cells by Glosensor functional assay; type: cell-based
[47] = biological target: Histamine H3 receptor (Cavia porcellus) (UniProt Q9JI35); assay: Inhibition of histamine H3 receptor in electrically contracted guinea pig ileum assessed as reduction of R-alpha-methyl histamine mediated relaxation; type: tissue-based
Chain of Histamine H3 receptor (Cavia porcellus) (Q9JI35 whole entry): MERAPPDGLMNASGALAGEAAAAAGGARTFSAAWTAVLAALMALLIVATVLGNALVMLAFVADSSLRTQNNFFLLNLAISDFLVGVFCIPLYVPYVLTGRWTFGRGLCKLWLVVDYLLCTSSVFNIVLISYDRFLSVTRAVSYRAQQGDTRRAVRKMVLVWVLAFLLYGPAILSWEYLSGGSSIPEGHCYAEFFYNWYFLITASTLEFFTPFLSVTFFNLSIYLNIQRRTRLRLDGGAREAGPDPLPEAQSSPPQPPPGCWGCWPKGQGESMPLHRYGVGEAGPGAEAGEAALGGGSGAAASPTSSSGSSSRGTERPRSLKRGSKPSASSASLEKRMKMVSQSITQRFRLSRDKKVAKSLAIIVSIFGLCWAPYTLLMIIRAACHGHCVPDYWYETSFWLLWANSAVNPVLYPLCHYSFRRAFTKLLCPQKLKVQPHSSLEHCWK

[48] = Binding affinity to sigma receptor (unknown origin); set-up: species or system Homo sapiens
HEK293 = assay: Selectivity ratio of Ki for sigma receptor (unknown origin) to Ki for human recombinant histamine H3 receptor expressed in HEK-293 cells; type: cell-based
Histamine H1 receptor = Histamine H1 receptor (Homo sapiens, UniProt P35367); assay: Binding affinity to human histamine H1 receptor
Chain of Histamine H1 receptor (P35367 whole entry): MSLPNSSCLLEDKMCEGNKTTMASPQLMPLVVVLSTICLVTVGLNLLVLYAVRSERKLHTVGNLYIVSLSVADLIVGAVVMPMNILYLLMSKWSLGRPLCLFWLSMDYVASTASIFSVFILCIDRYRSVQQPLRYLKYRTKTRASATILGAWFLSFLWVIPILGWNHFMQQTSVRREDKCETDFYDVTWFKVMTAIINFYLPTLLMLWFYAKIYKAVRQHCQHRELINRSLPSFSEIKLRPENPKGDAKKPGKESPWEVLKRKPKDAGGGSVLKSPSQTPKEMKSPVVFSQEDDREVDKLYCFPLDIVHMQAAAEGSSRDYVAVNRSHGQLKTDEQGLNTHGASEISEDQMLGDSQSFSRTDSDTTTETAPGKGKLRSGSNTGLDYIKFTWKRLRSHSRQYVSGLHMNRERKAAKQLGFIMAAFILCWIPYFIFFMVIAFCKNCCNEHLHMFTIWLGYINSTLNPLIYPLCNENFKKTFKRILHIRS

Histamine H2 receptor = Histamine H2 receptor (Homo sapiens, UniProt P25021); assay: Binding affinity to human histamine H2 receptor
Chain of Histamine H2 receptor (P25021 whole entry): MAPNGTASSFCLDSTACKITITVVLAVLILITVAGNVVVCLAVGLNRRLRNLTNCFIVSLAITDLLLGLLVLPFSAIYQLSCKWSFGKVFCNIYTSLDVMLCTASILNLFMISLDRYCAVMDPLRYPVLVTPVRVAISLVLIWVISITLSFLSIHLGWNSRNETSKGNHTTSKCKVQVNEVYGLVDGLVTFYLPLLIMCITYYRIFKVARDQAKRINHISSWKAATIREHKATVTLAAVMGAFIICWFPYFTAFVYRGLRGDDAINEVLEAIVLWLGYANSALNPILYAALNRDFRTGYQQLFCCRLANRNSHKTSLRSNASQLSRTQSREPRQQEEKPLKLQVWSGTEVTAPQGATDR

Histamine H4 receptor = Histamine H4 receptor (Homo sapiens, UniProt Q9H3N8); assay: Binding affinity to human histamine H4 receptor
Chain of Histamine H4 receptor (Q9H3N8 whole entry, the tested form may be a part): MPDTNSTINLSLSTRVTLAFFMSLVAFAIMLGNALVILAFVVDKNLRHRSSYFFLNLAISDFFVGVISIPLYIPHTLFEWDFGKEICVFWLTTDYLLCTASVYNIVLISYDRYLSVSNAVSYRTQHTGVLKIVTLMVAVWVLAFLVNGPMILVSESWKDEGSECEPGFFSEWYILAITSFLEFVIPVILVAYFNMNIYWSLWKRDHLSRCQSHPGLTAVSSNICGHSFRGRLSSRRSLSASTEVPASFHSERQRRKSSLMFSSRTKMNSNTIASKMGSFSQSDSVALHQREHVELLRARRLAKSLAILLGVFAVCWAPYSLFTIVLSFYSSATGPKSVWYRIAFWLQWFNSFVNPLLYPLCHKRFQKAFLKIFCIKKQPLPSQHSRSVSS

Rattus norvegicus [49] = assay: Ex vivo receptor occupancy of histamine H3 receptor in iv dosed rat brain administered at 20 times free H3R Ki in plasma measured after 6 hrs infusion; type: functional

Chain of Voltage-gated inwardly rectifying potassium channel KCNH2 (Q12809 whole entry): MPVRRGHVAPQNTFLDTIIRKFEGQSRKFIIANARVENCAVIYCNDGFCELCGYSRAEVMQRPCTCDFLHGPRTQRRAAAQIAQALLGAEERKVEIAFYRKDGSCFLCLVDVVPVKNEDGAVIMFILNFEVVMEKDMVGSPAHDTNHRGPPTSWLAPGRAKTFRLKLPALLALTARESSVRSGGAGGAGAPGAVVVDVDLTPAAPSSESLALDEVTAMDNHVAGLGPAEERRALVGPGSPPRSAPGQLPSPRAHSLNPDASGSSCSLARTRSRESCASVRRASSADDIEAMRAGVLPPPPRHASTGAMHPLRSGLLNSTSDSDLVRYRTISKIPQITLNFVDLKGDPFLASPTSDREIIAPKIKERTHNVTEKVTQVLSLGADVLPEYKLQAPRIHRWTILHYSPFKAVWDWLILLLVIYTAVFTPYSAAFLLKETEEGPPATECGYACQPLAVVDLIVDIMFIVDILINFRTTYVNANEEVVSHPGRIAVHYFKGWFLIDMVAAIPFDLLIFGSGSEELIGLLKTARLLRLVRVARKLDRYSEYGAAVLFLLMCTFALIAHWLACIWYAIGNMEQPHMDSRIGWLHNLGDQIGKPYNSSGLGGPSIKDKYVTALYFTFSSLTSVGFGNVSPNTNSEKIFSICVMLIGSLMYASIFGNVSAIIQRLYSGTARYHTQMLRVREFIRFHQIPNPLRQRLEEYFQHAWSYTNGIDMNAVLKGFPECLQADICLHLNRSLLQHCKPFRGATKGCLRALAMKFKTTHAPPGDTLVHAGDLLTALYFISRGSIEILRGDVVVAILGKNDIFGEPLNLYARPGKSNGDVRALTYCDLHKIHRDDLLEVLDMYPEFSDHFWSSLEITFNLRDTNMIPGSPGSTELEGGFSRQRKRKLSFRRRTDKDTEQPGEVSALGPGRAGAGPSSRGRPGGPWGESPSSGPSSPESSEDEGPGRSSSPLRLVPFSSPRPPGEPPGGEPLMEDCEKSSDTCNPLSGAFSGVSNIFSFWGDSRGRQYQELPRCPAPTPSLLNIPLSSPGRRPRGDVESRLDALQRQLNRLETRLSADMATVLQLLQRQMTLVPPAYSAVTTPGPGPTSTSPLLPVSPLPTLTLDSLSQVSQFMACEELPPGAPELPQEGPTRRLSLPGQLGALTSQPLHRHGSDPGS

Compound: CC(C)N1CCC(Oc2ccc(C3(C(N)=O)CCOCC3)cc2)CC1
- Ki [1]: > 40000 nM
- Cmax [2]: 477 ng/mL
- Cmax [3]: 89 ng/mL
- Cmax [4]: 129 ng/mL
- Cmax [5]: 142 ng/mL
- fCmax (Rattus norvegicus [6]): 856 nM
- fCmax (Rattus norvegicus [7]): 158 nM
- fCmax (Canis familiaris [8]): 320 nM
- fCmax (Canis familiaris [9]): 352 nM
- Tmax [10]: 0.75 h
- Tmax [11]: 0.9 h
- AUC [12]: 776 ng·h/mL
- AUC [13]: 649 ng·h/mL
- AUC [14]: 548 ng·h/mL
- AUC [15]: 727 ng·h/mL
- clearance [16]: 27 mL/min/kg
- clearance [17]: 6.1 mL/min/kg
- Vd [18]: 4.1 L/kg
- Vd [19]: 2.3 L/kg
- half-life [20]: 1.9 h
- half-life [21]: 4.5 h
- Fa [22]: 57%
- bioavailability [23]: 42%
- bioavailability [24]: 133%
- Activity (Salmonella typhimurium [25]): Non-toxic
- Activity (Salmonella typhimurium [26]): Non-toxic
- Activity (CHO [27]): Non-toxic
- Activity (CHO [28]): Non-toxic
- NOAEL [29]: 150 µM
- NOAEL at 168 h [30]: 80 mg/kg/day
- Drug uptake(free) (Rattus norvegicus [31]): 14.051 µM
- pKa [32]: 9.78
- logD [33]: 0
- solubility [34]: > 1000 µg/mL
- Papp A→B [35]: 2 ×10⁻⁶ cm/s
- efflux ratio (MDR1 (P-gp)): 3.3
- efflux ratio (BCRP): 5.6
- Ratio (Nucleic Acid): 0.06
- Kp uu at 6 h [36]: 0.1
- Kp uu at 192 h [37]: 0.07
- Kp uu at 192 h [38]: 0.1
- selectivity ratio [39]: 16
- bioavailability [40]: 42%
- Ki (Histamine H3 receptor [41]): 9.6 nM
- Ki (Histamine H3 receptor [42]): 1.36 nM
- Ki (Histamine H3 receptor [43]): 90.6 nM
- Ki (Histamine H3 receptor [44]): 145 nM
- Emax (Histamine H3 receptor [45]): 195%
- Ki (Histamine H3 receptor [45]): 0.832 nM
- Kb (Histamine H3 receptor [46]): 0.42 nM
- A2 [47]: 0.96 nM
- Ki [48]: 3900 nM
- Ratio Ki (HEK293): > 400
- Ki (Histamine H1 receptor): > 4000 nM
- Ki (Histamine H2 receptor): > 4000 nM
- Ki (Histamine H4 receptor): > 4000 nM

Compound: CC(C)N1CCC(Oc2ccc3c(n2)CCN(c2ccc(C(N)=O)cn2)C3)CC1
- logD [33]: 1.2
- solubility [34]: > 1000 µg/mL
- Papp A→B [35]: 11 ×10⁻⁶ cm/s
- efflux ratio (MDR1 (P-gp)): 4.8
- efflux ratio (BCRP): 3.7
- Ratio (Nucleic Acid): 0.05
- Kp uu at 6 h [36]: 0.1
- Kp uu at 192 h [37]: 0.07
- selectivity ratio [39]: 40
- bioavailability [40]: 54%
- Occ (Rattus norvegicus [49]): 18%
